Results published in patent US20230366033A1, “METHODS FOR TREATING CANCERS WITH INHIBITORS TARGETING THE ROLE OF GRB2 IN DNA REPAIR” (Board of Regents, The University of Texas System, priority 2020, published 2023).
Like-named read-outs stand apart in the source and are kept apart here. Where no end group is shown, it is not given here. [ ]: non-standard residue; d: D form. pY = N[C@@H](Cc1ccc(OP(=O)(O)O)cc1)C(=O)O

Key:
K109R GRB2 mutant = target: T1, K109R GRB2 mutant (Homo sapiens, UniProt P62993, K109R); assay: Microscale thermophoresis (MST) binding of synthetic peptides; conditions: 100 nM Atto488-labelled K109R GRB2
T1 construct: 6xHis; made in house
T1 sequence (P62993 whole entry K109R): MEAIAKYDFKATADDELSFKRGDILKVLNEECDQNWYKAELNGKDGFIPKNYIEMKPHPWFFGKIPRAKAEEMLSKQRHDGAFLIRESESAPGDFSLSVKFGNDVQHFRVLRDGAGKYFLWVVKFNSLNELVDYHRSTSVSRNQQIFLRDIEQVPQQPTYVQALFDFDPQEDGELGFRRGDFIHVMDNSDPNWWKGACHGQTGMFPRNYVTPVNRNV
Source text: (§1) FIGS. 3A-3I. Identification of GRB2 binding interfaces on MRE11, RPA70 and H2AX. (FIG. 3A) Schematic DDR binding-motifs (circles) on GRB2 within its domain architecture. Approximate non-canonical binding motifs are shown. (FIG. 3B) GST-SH domains pulldown of HEK293T cell-extracts followed by immunoblotting with indicated antibodies. (FIG. 3C) GST pulldown of bacterially expressed and purified human MRE11 with indicated GRB2 SH-domains. (FIG. 3D) OB1 fold binding motifs sequence alignment (top). MST isotherms of 50 nM Atto488-labelled RPA70 N-terminal domain (residue 1-120) binding to titrating concentrations (2 nM to 20 μM) of GRB2 or GRB2-derived OB1 peptide. The binding affinity (Kd) is shown. (FIG. 3E) Strep-Tactin precipitation of WT and DF/AA mutant from HEK293T cells that were either untreated (normal) or immediately after IR treated (5 Gy) and lysed, followed by western blot detection with the indicated antibodies. (FIG. 3F) MST-binding isotherms of an Atto488-labelled GRB2-SH2 domain (100 nM) binding to titrating concentrations (30 nM to 500 μM) of synthetic peptides derived from indicated proteins. (FIG. 3G) MST-isotherms of 100 nM Atto488-labelled K109R GRB2 mutant binding to titrating concentrations (30 nM to 200 μM) of synthetic peptides derived from the indicated proteins. Each isotherm was derived from the raw data and fitted according to the law of mass action to yield an apparent Kd. (FIG. 3H) Molecular docking overlay model of GRB2-SH2 domain with (PDB: 3wa4) and without (PDB: 1gri) showing S88 and S90 movement ˜4.7 Å when bound to phosphotyrosine peptide (PDB: 3wa4). K109R shown modeled, which could engage with the loop containing S88 and S90 residues. (FIG. 3I) Docking of pH2AX, MRE11 and pEGFR peptide into GRB2 SH2 domain pocket. The relative docking orientation of each peptide is shown.
(§2) Microscale thermophoresis. The MST method has been described in detail elsewhere (Seidel et al., 2013). The Kd values were measured using the Monolith NT.115 system (Nano Temper). Proteins were fluorescently labeled with Atto 488 according to the manufacturer's protocol. Labeling efficiency was determined to be 1:1 (protein:dye) by measuring the absorbance at 280 and 488 nm. A solution of peptides or proteins in 0.01 M HEPES (pH 7.4), 0.15 M NaCl and 0.005% v/v Surfactant P20 was serially diluted, typically from about 100 μM to 30 nM in the presence of 100 nM labeled protein. The samples were loaded into silica capillaries (Polymicro Technologies) after incubation at room temperature for 15 min. Measurements were performed at 22° C. using 20% LED power and 40% IR-laser power. Measurements were also carried out using 20% and 60% IR-laser power for comparison. Data analyses were performed using Nano Temper Analysis software using the Kd curve fitting function. Raw data were exported and fitting curves were generated using Prism 8 (GraphPad Software) for presentation.

GRB2-SH2 domain = target: T2, GRB2-SH2 domain (Homo sapiens, UniProt P62993); assay: as above
T2 construct: 6xHis; made in house
T2 sequence (P62993 60-152 limits assumed): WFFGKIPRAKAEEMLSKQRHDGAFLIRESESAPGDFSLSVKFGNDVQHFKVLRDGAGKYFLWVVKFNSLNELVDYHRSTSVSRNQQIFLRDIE
Source text: as §1, §2

[1] = target: T3, human MRE11 (residue 1-411) (Homo sapiens, UniProt P49959); assay: Microscale thermophoresis (MST) binding of GRB2 WT and mutants; conditions: bacterially expressed proteins lacking ubiquitination
T3 construct: Human MRE11 core (residues 1-411) purification was described previously; 6xHis; made in house
T3 sequence (P49959 1-411): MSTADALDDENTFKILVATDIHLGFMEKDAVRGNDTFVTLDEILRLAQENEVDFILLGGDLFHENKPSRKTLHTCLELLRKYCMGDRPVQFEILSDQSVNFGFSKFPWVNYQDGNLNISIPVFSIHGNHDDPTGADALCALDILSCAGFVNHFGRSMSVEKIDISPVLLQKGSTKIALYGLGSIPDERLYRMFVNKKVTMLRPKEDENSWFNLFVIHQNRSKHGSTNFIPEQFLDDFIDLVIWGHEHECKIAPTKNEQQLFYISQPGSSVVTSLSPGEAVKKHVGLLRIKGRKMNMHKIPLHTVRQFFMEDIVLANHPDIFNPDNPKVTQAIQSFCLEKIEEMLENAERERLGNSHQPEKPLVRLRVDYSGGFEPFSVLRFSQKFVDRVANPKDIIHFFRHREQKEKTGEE
Source text: FIGS. 2A-2H. Interactions of nGRB2 with DNA damage response factors. (FIG. 2A) Mass spectrometry identifies nuclear GRB2-associated proteins that are involved in DNA damage repair. Mean of coverage and unique peptides from three independent data sets are shown. (FIG. 2B) Strep-Tactin precipitation of Strep-GRB2 precipitated from HEK293T cells followed by western blotting with indicated antibodies. (FIG. 2C) GRB2 preferentially co-precipitate MRE11 without RAD50 or NBS1. Strep-GRB2 expressed HEK293T cells treated with or without 5 Gy IR were lysed immediately followed by Strep-Tactin precipitation and immunoblotting with indicated antibodies. (FIG. 2D) Immunoprecipitation of NBS1. HEK293T cells were co-transfected with RFP-GRB2 and GFP-NBS1 or GFP alone as control. Total cell lysates were precipitated with GFP-trap beads and immunoblotted with indicated antibodies. (FIG. 2E) Immunoprecipitation of RAD50. HEK293T cells expressing Flag-RAD50 or Flag-Ctrl were co-transfected with RFP-GRB2 for 24 h. Unperturbed cells were immunoprecipitated with Flag-M2 beads and immunoblotted with indicated antibodies. β-Actin was used as a loading control. (FIG. 2F) Immunoprecipitation of MRE11. […]
(§3) Microscale thermophoresis. […] The Kd values were measured using the Monolith NT.115 system (Nano Temper). […] Labeling efficiency was determined to be 1:1 (protein:dye) by measuring the absorbance at 280 and 488 nm. […]

[2] = target: T4, RPA70 N-terminal domain (residue 1-120) (Homo sapiens, UniProt P27694); assay: Microscale thermophoresis (MST) binding; conditions: 50 nM Atto488-labelled RPA70N
T4 construct: 6xHis; made in house
T4 sequence (P27694 1-120): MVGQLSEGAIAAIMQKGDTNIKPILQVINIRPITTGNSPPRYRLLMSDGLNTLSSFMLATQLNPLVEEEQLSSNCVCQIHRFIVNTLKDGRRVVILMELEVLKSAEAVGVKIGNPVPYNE
Source text: FIGS. 3A-3I. Identification of GRB2 binding interfaces on MRE11, RPA70 and H2AX. (FIG. 3A) Schematic DDR binding-motifs (circles) on GRB2 within its domain architecture. Approximate non-canonical binding motifs are shown. (FIG. 3B) GST-SH domains pulldown of HEK293T cell-extracts followed by immunoblotting with indicated antibodies. (FIG. 3C) GST pulldown of bacterially expressed and purified human MRE11 with indicated GRB2 SH-domains. (FIG. 3D) OB1 fold binding motifs sequence alignment (top). MST isotherms of 50 nM Atto488-labelled RPA70 N-terminal domain (residue 1-120) binding to titrating concentrations (2 nM to 20 μM) of GRB2 or GRB2-derived OB1 peptide. The binding affinity (Kd) is shown. (FIG. 3E) Strep-Tactin precipitation of WT and DF/AA mutant from HEK293T cells that were either untreated (normal) or immediately after IR treated (5 Gy) and lysed, followed by western blot detection with the indicated antibodies. (FIG. 3F) MST-binding isotherms of an Atto488-labelled GRB2-SH2 domain (100 nM) binding to titrating concentrations (30 nM to 500 μM) of synthetic peptides derived from indicated proteins. […]
as §3

## CC(C)C[C@H](NC(=O)[C@H](CC(N)=O)NC(=O)CNC(=O)[C@H](CC(=O)O)NC(=O)[C@H](CCC(N)=O)NC(=O)[C@H](Cc1ccc(O)cc1)NC(=O)[C@H](CC(N)=O)NC(=O)[C@@H](NC(=O)[C@H](Cc1c[nH]c2ccccc12)NC(=O)[C@@H]1CCCN1)C(C)C)C(=O)N[C@@H](CC(N)=O)C(=O)O
K109R GRB2 mutant
  binding affinity to K109R GRB2 relative to WT GRB2: at least two orders of magnitude weaker

## CC[C@H](C)[C@H](NC(=O)[C@H](Cc1ccc(OP(=O)(O)O)cc1)NC(=O)[C@H](CCC(=O)O)NC(=O)[C@@H]1CCCN1C(=O)[C@@H](NC(=O)[C@@H]1CCCN1C(=O)[C@H](CC(C)C)NC(=O)[C@@H](N)Cc1ccccc1)C(C)C)C(=O)N[C@@H](CC(N)=O)C(=O)N[C@@H](CCC(N)=O)C(=O)N[C@@H](CO)C(=O)N[C@H](C(=O)N1CCC[C@H]1C(=O)N[C@@H](CCCCN)C(=O)N[C@@H](CCCNC(=N)N)C(=O)O)C(C)C [pEGFR]
GRB2-SH2 domain
  Kd: 7.2 ± 2 µM
K109R GRB2 mutant
  binding affinity to K109R GRB2 relative to WT GRB2: comparable to that of ^WTGRB2

## C[C@H](NC(=O)[C@H](CCCCN)NC(=O)[C@H](CCCCN)NC(=O)CNC(=O)CNC(=O)[C@H](CO)NC(=O)[C@@H]1CCCN1)C(=O)N[C@H](C(=O)N[C@@H](CCC(N)=O)C(=O)N[C@@H](C)C(=O)N[C@@H](COP(=O)(O)O)C(=O)N[C@@H](CCC(N)=O)C(=O)N[C@@H](CCC(=O)O)C(=O)N[C@@H](Cc1ccc(OP(=O)(O)O)cc1)C(=O)O)[C@@H](C)O [pH2AX peptide]
GRB2-SH2 domain; MST, 100 nM Atto488-labelled GRB2-SH2 domain, read-out: Kd, binding to GRB2-SH2 domain
  Kd: 2.8 ± 3.3 µM
K109R GRB2 mutant
  binding affinity to K109R GRB2 relative to WT GRB2: comparable to that of ^WTGRB2

## K109A mutant: ubiquitination-defective GRB2 K109A mutant, bacterially expressed
[1]
  dissociation constant (Kd), interaction with MRE11: intact MRE11 binding

## K109R mutant: GRB2 lysine-to-arginine mutant at K109, bacterially expressed
[1]
  dissociation constant (Kd), interaction with MRE11: no binding

## KYDFKATADDELSFKRG
[2]
  binding to RPA70N: interacted with RPA70N

## WVNpYQDGNLN (WVN[pY]QDGNLN)
GRB2-SH2 domain; MST
  effect of tyrosine phosphorylation on binding affinity for GRB2-SH2 domain: limited impact on its binding affinity

## non-ubiquitinated GRB2: bacterially expressed and purified wild-type growth factor receptor-bound protein 2
[2]
  binding to RPA70N: direct binding
